Holding throughout (assay type): cell-based
The test system of one test is clostridia. Description: organism not typed. The note with it: Clostridia (18 isolates), agar dilution, 48 h. On the technique in general: In agar dilution the substance is mixed into plates at graded concentrations.
The subject of the next test is Giardia intestinalis. Description: Antiparasite test by conventional means. The following applies: at concentrations of at least 50 μg/mL. As to the method: (§1) The above identified compounds according to Formula (IV) were tested by conventional means against Trichomis vaginalis, Giardia Intestinalis, and Trypanosoma brucei.
Another test deals with Trypanosoma brucei. The experiment in a line: Antiparasite test by conventional means. The following applies: at concentrations of at least 50 μg/mL. How it is done:
as §1

Test [1] deals with hepatitis C virus (HCV) replicon. Description: HCV replication in AVA5 replicon cell culture, 3-day assay. The following applies: AVA5 cells. As to the method: Anti-Hepatitis C Virus (HCV) analyses and an assessment of cytotoxicity were performed in a 3-day assay in the HCV replicon-containing human hepatoblastoma cell line, AVA5 (Okuse, C., Rinaudo, J. A., Farrar, K., Wells, F. & Korba, B. E. Enhancement of antiviral activity against hepatitis C virus in vitro by interferon combination therapy. Antivir. Res. 65, 23-34 (2005)) as previously described (Blight, K. J., Kolykhalov, A. A. & Rice, C. M. Efficient initiation of HCV RNA replication in cell culture. Science 290, 1972-1974 (2000)).
Values presented (±standard deviations [S.D.]) were calculated by linear regression analysis using data combined from all treated cultures. S.D. were calculated using the standard error of regression generated from the linear regression analyses (QuattroPro™). EC50, EC90=drug concentration at which a 2-fold, or a 10-fold depression of HCV RNA (relative to the average levels in untreated cultures), respectively, was observed. CC50=drug concentration at which a 2-fold depression of neutral red dye uptake was observed relative to the average levels in untreated cultures. Selectivity index=CC50/EC50.

For test [2], the system named is anaerobic bacteria (all 142 isolates). Description: CLSI agar dilution MIC, all anaerobic clinical isolates.
The mark [3] stands for this setting: All (142 isolates), agar dilution, 48 h.

Some results are limits rather than exact numbers.

In general, MIC50 refers to an inhibitory concentration at the 50% level, which refers to growth in some studies and to a panel of isolates in others. One may read the MIC90 as an inhibitory concentration at the 90% level, which refers to growth in some studies and to a panel of isolates in others. Usually EC50 stands for the midpoint of the concentration-response curve. The EC90 is the concentration needed for an effect of 90%.

Regarding `CC(=O)Oc1c(C)cccc1C(=O)Nc1ncc(Br)s1` [RM-4803, 2-(acetolyloxy)-3-methyl-N-(5-bromo-2-thiazolyl)benzamide], the MIC50 (with clostridia (read-out: MIC50); in test [2] (setting [3])) was more than 32 µg/mL in each case. For the same compound, the MIC90 (in the test on clostridia (read-out: MIC90); in test [2] (setting [3])) was more than 32 µg/mL in each case. Besides, the antiparasite activity entry in the test on Giardia intestinalis and in the test on Trypanosoma brucei was “failed to exhibit antiparasite activitity” each time. In addition, the “Selectivity Index” value in test [1] (CC50/EC50) turned out to be 7.6. Further, in test [1] (Hepatitis C virus, 2-fold depression of HCV RNA, read-out: EC50), the EC50 is 37 ± 2.7 µM. For the same compound, the 90% effect concentration (EC90) in test [1] (Hepatitis C virus, 10-fold depression of HCV RNA, read-out: EC90) is 98 ± 9.3 µM. Besides, the “Activity against anaerobic bacteria groups (summary in words)” value in test [2] (summary of MIC results) was “without significant activity”.

The record behind these values is patent US7285567B2, “Halogenated benzamide derivatives” (Romark Laboratories, L.C., priority 2005, dated 2007).
